From ChEMBL document CHEMBL4219259, “Molecular Determinants Conferring the Stoichiometric-Dependent Activity of α-Conotoxins at the Human α9α10 Nicotinic Acetylcholine Receptor Subtype” (J Med Chem, 2018)
Peptide text beside a SMILES is read from it.

Columns and labels:
[1] = biological target: Neuronal acetylcholine receptor; alpha9/alpha10 (Homo sapiens, UniProt Q9GZZ6+Q9UGM1, G154N); experiment: Inhibition of human alpha9/alpha10 G154N mutant nACHR (1:3) expressed in Xenopus laevis oocyte assessed as inhibition of ACh induced channel current measured for 2 to 5 days at -80 mV holding potential by two electrode voltage clamp method
[2] = biological target: T1, Neuronal acetylcholine receptor; alpha9/alpha10 (Homo sapiens, UniProt Q9GZZ6+Q9UGM1); experiment: Inhibition of human alpha9/alpha10 nACHR (1:3) expressed in Xenopus laevis oocyte assessed as inhibition of ACh induced channel current measured for 2 to 5 days at -80 mV holding potential by two electrode voltage clamp method
[3] = biological target: T1, Neuronal acetylcholine receptor; alpha9/alpha10; experiment: Inhibition of human alpha9/alpha10 nACHR (3:1) expressed in Xenopus laevis oocyte assessed as inhibition of ACh induced channel current measured for 2 to 5 days at -80 mV holding potential by two electrode voltage clamp method
[4] = biological target: T1, Neuronal acetylcholine receptor; alpha9/alpha10; experiment: Inhibition of human alpha9/alpha10 nACHR (1:1) expressed in Xenopus laevis oocyte assessed as inhibition of ACh induced channel current measured for 2 to 5 days at -80 mV holding potential by two electrode voltage clamp method
[5] = biological target: T2, Neuronal acetylcholine receptor; alpha9/alpha10 (Homo sapiens, UniProt Q9GZZ6+Q9UGM1, N154G); experiment: Inhibition of human alpha9 N154G mutant/alpha10 nACHR (3:1) expressed in Xenopus laevis oocyte assessed as inhibition of ACh induced channel current measured for 2 to 5 days at -80 mV holding potential by two electrode voltage clamp method
[6] = biological target: T3, Neuronal acetylcholine receptor; alpha9/alpha10 (Homo sapiens) (UniProt Q9UGM1+Q9GZZ6); experiment: Inhibition of human alpha9/alpha10 nACHR (4:1) expressed in Xenopus laevis oocyte assessed as inhibition of ACh induced channel current at 1 uM measured for 2 to 5 days at -80 mV holding potential by two electrode voltage clamp method
[7] = biological target: T3, Neuronal acetylcholine receptor; alpha9/alpha10 (Homo sapiens); experiment: Inhibition of human alpha9/alpha10 nACHR (2:3) expressed in Xenopus laevis oocyte assessed as inhibition of ACh induced channel current at 1 uM measured for 2 to 5 days at -80 mV holding potential by two electrode voltage clamp method
[8] = biological target: T3, Neuronal acetylcholine receptor; alpha9/alpha10 (Homo sapiens); experiment: Inhibition of human alpha9 N154G mutant/alpha10 nACHR (1:3) expressed in Xenopus laevis oocyte assessed as inhibition of ACh induced channel current at 1 uM measured for 2 to 5 days at -80 mV holding potential by two electrode voltage clamp method
Homo sapiens [9] = species on record: Homo sapiens; experiment: Ratio of IC50 for human alpha9/alpha10 nACHR (1:3) to IC50 for human alpha9 N154G mutant/alpha10 nACHR (1:3)
Homo sapiens [10] = species on record: Homo sapiens; experiment: Ratio of IC50 for human alpha9/alpha10 nACHR (3:1) to IC50 for human alpha9 N154G mutant/alpha10 nACHR (3:1)
[11] = biological target: T2, Neuronal acetylcholine receptor; alpha9/alpha10; experiment: Inhibition of human alpha9 N154G mutant/alpha10 nACHR (1:3) expressed in Xenopus laevis oocyte assessed as inhibition of ACh induced channel current measured for 2 to 5 days at -80 mV holding potential by two electrode voltage clamp method
[12] = biological target: T3, Neuronal acetylcholine receptor; alpha9/alpha10 (Homo sapiens); experiment: Inhibition of human alpha9/alpha10 nACHR (3:2) expressed in Xenopus laevis oocyte assessed as inhibition of ACh induced channel current at 1 uM measured for 2 to 5 days at -80 mV holding potential by two electrode voltage clamp method
[13] = biological target: T3, Neuronal acetylcholine receptor; alpha9/alpha10 (Homo sapiens); experiment: Inhibition of human alpha9 N154G mutant/alpha10 nACHR (3:1) expressed in Xenopus laevis oocyte assessed as inhibition of ACh induced channel current at 1 uM measured for 2 to 5 days at -80 mV holding potential by two electrode voltage clamp method

T1 sequence (Q9UGM1 whole entry): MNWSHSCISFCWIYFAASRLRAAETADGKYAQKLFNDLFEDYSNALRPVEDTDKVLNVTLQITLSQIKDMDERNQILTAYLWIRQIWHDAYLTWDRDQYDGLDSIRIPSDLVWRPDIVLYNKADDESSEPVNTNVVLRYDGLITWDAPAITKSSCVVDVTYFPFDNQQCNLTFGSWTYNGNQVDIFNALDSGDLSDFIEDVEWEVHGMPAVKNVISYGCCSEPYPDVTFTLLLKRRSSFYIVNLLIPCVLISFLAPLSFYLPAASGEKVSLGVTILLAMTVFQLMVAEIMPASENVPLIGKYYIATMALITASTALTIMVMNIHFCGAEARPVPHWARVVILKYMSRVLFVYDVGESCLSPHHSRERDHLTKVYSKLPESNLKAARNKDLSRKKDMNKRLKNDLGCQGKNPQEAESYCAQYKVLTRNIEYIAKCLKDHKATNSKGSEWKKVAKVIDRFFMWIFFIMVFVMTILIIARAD
T1 sequence (Q9GZZ6 whole entry): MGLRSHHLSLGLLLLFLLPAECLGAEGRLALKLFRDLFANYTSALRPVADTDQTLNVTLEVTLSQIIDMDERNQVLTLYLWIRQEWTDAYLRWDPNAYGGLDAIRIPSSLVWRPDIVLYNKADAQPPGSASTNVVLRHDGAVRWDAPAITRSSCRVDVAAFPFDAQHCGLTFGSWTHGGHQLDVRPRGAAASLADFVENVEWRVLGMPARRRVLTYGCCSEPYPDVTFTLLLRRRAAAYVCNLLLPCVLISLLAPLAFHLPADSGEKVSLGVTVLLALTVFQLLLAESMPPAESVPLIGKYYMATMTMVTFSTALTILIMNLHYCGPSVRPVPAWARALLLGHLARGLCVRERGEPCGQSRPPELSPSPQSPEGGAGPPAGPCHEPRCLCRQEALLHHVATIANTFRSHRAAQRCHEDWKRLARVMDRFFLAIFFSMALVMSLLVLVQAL
T2 sequence (Q9GZZ6 whole entry, looked up, stated change not applied): as the sequence (Q9GZZ6 whole entry) above
T2 sequence (Q9UGM1 whole entry, looked up, stated change not applied): as the sequence (Q9UGM1 whole entry) above
Sequence of Neuronal acetylcholine receptor; alpha9/alpha10 (Homo sapiens, UniProt Q9GZZ6+Q9UGM1, G154N) (Q9GZZ6 whole entry, looked up, stated change not applied): as the sequence (Q9GZZ6 whole entry) above
Sequence of Neuronal acetylcholine receptor; alpha9/alpha10 (Homo sapiens, UniProt Q9GZZ6+Q9UGM1, G154N) (Q9UGM1 whole entry, looked up, stated change not applied): as the sequence (Q9UGM1 whole entry) above

SMILES	IC50 [1] [µM]	IC50 [2] [µM]	IC50 [3] [µM]	IC50 [4] [µM]	IC50 [5] [µM]	inhibition [6] [%]	inhibition [7] [%]	inhibition [8] [%]	Ratio IC50 (Homo sapiens [9])	Ratio IC50 (Homo sapiens [10])	IC50 [11] [µM]	inhibition [12] [%]	inhibition [13] [%]
CC[C@H](C)[C@@H]1NC(=O)[C@H](CCC(=O)O)NC(=O)[C@@H]2CCCN2C(=O)[C@H](Cc2ncc[nH]2)NC(=O)[C@H](CC(=O)O)NC(=O)[C@H](Cc2ccc(O)cc2)NC(=O)[C@H](CC(N)=O)NC(=O)[C@@H]2CSSC[C@H](NC(=O)CN)C(=O)N[C@@H](CSSC[C@@H](C(N)=O)NC1=O)C(=O)N[C@@H](CO)C(=O)N[C@@H](CC(=O)O)C(=O)N1CCC[C@H]1C(=O)N[C@@H](CCCNC(=N)N)C(=O)N2 (HELM PEPTIDE1{G.C.C.S.D.P.R.C.N.Y.D.[O=C([C@H](Cc1ncc[nH]1)N[*:1])[*:2]].P.E.I.C.[am]}$PEPTIDE1,PEPTIDE1,2:R3-8:R3|PEPTIDE1,PEPTIDE1,3:R3-16:R3$$$V2.0)	0.75	3.57	0.75	1	17	65.8	25.5	19.5	3	23	11.3	65.8	21.8
CC[C@H](C)[C@@H]1NC(=O)[C@H](CC(N)=O)NC(=O)[C@@H]2CCCN2C(=O)[C@H](Cc2ncc[nH]2)NC(=O)[C@H](CC(=O)O)NC(=O)[C@H](Cc2ccc(O)cc2)NC(=O)[C@H](CC(N)=O)NC(=O)[C@@H]2CSSC[C@H](NC(=O)CN)C(=O)N[C@@H](CSSC[C@@H](C(N)=O)NC1=O)C(=O)N[C@@H](CO)C(=O)N[C@@H](CC(=O)O)C(=O)N1CCC[C@H]1C(=O)N[C@@H](CCCNC(=N)N)C(=O)N2 (HELM PEPTIDE1{G.C.C.S.D.P.R.C.N.Y.D.[O=C([C@H](Cc1ncc[nH]1)N[*:1])[*:2]].P.N.I.C.[am]}$PEPTIDE1,PEPTIDE1,2:R3-8:R3|PEPTIDE1,PEPTIDE1,3:R3-16:R3$$$V2.0)	–	17.5	10.8	–	8.59	–	–	–	–	–	10.2	–	–
N=C(N)NCCC[C@@H]1NC(=O)[C@H](Cc2ccc(O)cc2)NC(=O)[C@H](CCCNC(=N)N)NC(=O)[C@@H]2CSSC[C@H](NC(=O)CN)C(=O)N[C@@H](CSSC[C@@H](C(N)=O)NC1=O)C(=O)N[C@@H](CO)C(=O)N[C@@H](CC(=O)O)C(=O)N1CCC[C@H]1C(=O)N[C@@H](CCCNC(=N)N)C(=O)N2 (HELM PEPTIDE1{G.C.C.S.D.P.R.C.R.Y.R.C.[am]}$PEPTIDE1,PEPTIDE1,2:R3-8:R3|PEPTIDE1,PEPTIDE1,3:R3-12:R3$$$V2.0)	–	–	–	249	–	–	–	–	–	–	–	–	–
CC(C)[C@@H]1NC(=O)[C@H](CO)NC(=O)[C@@H]2CSSC[C@H](NC(=O)CN)C(=O)N[C@@H](CSSC[C@@H](C(N)=O)NC(=O)[C@H](CCCCN)NC(=O)[C@H](CC(N)=O)NC(=O)[C@@H]3CCCN3C(=O)[C@H](Cc3ncc[nH]3)NC(=O)[C@H](CC(=O)O)NC1=O)C(=O)N[C@@H](CO)C(=O)N[C@@H](CC(=O)O)C(=O)N1CCC[C@H]1C(=O)N[C@@H](CCCNC(=N)N)C(=O)N2 (HELM PEPTIDE1{G.C.C.S.D.P.R.C.S.V.D.[O=C([C@H](Cc1ncc[nH]1)N[*:1])[*:2]].P.N.K.C.[am]}$PEPTIDE1,PEPTIDE1,2:R3-8:R3|PEPTIDE1,PEPTIDE1,3:R3-16:R3$$$V2.0)	–	13.2	9.3	–	15.2	–	–	–	–	–	13	–	–
